From patent US7960373B2, “2-alkoxy-3,4,5-trihydroxyalkylamide-benzothiazepines preparation thereof, compositions containing them and use thereof” (Sanofi-Aventis, priority 2006, dated 2011)

Assays:
[1] = system: HCT116 cells; experiment: inhibition of cell proliferation of HCT116 cells (14C-thymidine incorporation); type: cell-based; conditions: Homo sapiens, HCT-116, HCT116, 96 hours
Procedure: The antiproliferative activity of the products of the examples of Table 1 was determined by measuring the inhibition of cell proliferation of HCT116 cells. The cells are inoculated in a cell culture medium at a concentration of 10 000 cells per well, in 0.17 mL of medium, and 20 μL of test product, at various concentrations, and 10 μL of thymidine [methyl-14C] (100 μCi/ml—specific activity 47.90 mCi/mmol; NEN Technologies reference NEC568 batch 3550-001) are added, and the cells are then incubated at 37° C. and 5% CO2.
Medium used for the HCT116 cell culturing: DMEM medium 2 mM L-glutamine, 200 IU/ml penicillin, 200 μg/mL streptomycin and 10% (V/V) foetal calf serum (Life Technologies).
After 96 hours, the incorporation of ^14C-thymidine is counted in a 1450 Microbeta Wallac Trilux liquid scintillation counter. The results R are expressed in cpm (counts per minute) and converted to a percentage of growth inhibition GI % by first subtracting the average number of cpm for the wells without B cells and then dividing the number of cpm for the wells of the untreated cells C comprising 20 μL of product dilution medium containing 1% ethanol. (GI %=(R−B)×100/C %).
The IC50 values are calculated by means of equation 205 of the XLFit software (IDBS company, UK) via non-linear regression analysis using the Marquardt algorithm (Donald W. Marquardt, J. Soc. Industry. Appl., vol. 11, No. 2, June, 1963).

[2] = Caco2-TC7 permeability (Papp single point); type: in vitro ADME; conditions: human, Caco-2
[3] = total metabolic stability (% metabolization); type: in vitro ADME; conditions: in mice
Text: This compound has better total metabolic stability (11% metabolization in mice) than the product of Example 20 (99%) described in patent application WO 2006/056 696.

SMILES | IC50 [1] [nM] | Papp [2] [×10⁻⁶ cm/s] | total metabolic stability, % metabolization [3] [%]
CO[C@@H](C(=O)N[C@H]1C[S@@+]([O-])c2ccccc2N(Cc2cc(F)cc(F)c2)C1=O)[C@H](O)[C@@H](O)[C@H](O)/C=C/C(C)(C)C [Example 1] | 9 | – | –
CO[C@@H](C(=O)N[C@H]1CSc2c(Cl)cc(C(F)(F)F)cc2NC1=O)[C@H](O)[C@@H](O)[C@H](O)/C=C/C(C)(C)C [Example 5, N-((3R)-9-chloro-4-oxo-7-trifluoromethyl-2,3,4,5-tetrahydro-1,5-benzothiazepin-3-yl)-(6E)-(2R,3R,4S,5R)-3,4,5-trihydroxy-2-methoxy-8,8-dimethylnon-6-enamide] | 14 | 2.3 | 11
CO[C@@H](C(=O)N[C@H]1CSc2ccccc2N(C)C1=O)[C@H](O)[C@@H](O)[C@H](O)/C=C/C(C)(C)C [Example 4, N-[(3R)-5-methyl-4-oxo-2,3,4,5-tetrahydro-1,5-benzothiazepin-3-yl]-(6E)-(2R,3R,4S,5R)-3,4,5-trihydroxy-2-methoxy-8,8-dimethylnon-6-enamide] | 19 | – | –
CO[C@@H](C(=O)N[C@H]1C[S@+]([O-])c2ccccc2N(Cc2cc(F)cc(F)c2)C1=O)[C@H](O)[C@@H](O)[C@H](O)/C=C/C(C)(C)C [Example 2] | 20 | – | –
CO[C@@H](C(=O)N[C@H]1CSc2ccccc2N(Cc2ccccc2)C1=O)[C@H](O)[C@@H](O)[C@H](O)/C=C/C(C)(C)C [Example 3, N-[(3R)-5-benzyl-4-oxo-2,3,4,5-tetrahydro-1,5-benzothiazepin-3-yl]-(6E)-(2R,3R,4S,5R)-3,4,5-trihydroxy-2-methoxy-8,8-dimethyl non-6-enamide] | 10 | – | –
CO[C@@H](C(=O)N[C@H]1CSc2ccccc2N(C)C1=O)[C@H](O)[C@@H](O)[C@H](O)/C=C/C1CCCC1 [Example 9, (2R,3R,4S,5R,6E)-7-cyclopentyl-3,4,5-trihydroxy-2-methoxy-N-[(3R)-5-methyl-4-oxo-2,3,4,5-tetrahydro-1,5-benzothiazepin-3-yl]hept-6-enamide] | 7 | – | –
